Source: patent publication US9284358B2 (UNIVERSITY OF UTAH RESEARCH FOUNDATION, priority 2006, dated 2016)
Positions of bridges follow the written chain, without caps; N, C: chain ends. Residues, ends and D or L forms follow the SMILES beside them.

How the values were obtained:
[1] = molecular target: T1, human α9α10 nAChR (Homo sapiens, UniProt Q9GZZ6+Q9UGM1); assay: cell-based
T1 construct: expressed in transfected cells; host or cells: oocytes

[2] = molecular target: T2, α9α10 nAChR (Rattus norvegicus, UniProt P43144+Q9JLB5); assay: cell-based
T2 construct: expressed in transfected cells; host or cells: oocytes
T2 sequence (P43144 26-479 limits assumed): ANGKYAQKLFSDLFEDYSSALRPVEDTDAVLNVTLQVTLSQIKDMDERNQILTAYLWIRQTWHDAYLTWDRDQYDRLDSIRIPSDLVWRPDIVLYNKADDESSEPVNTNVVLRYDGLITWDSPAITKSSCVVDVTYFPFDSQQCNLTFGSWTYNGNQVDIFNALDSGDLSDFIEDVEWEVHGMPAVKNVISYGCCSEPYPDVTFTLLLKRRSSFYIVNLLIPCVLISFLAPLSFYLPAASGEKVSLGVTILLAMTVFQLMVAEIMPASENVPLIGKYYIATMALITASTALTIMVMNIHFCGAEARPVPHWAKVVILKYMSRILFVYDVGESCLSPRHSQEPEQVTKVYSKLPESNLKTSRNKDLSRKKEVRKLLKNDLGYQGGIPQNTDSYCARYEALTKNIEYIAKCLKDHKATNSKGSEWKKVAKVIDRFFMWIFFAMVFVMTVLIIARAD
T2 sequence (Q9JLB5 25-447 limits assumed): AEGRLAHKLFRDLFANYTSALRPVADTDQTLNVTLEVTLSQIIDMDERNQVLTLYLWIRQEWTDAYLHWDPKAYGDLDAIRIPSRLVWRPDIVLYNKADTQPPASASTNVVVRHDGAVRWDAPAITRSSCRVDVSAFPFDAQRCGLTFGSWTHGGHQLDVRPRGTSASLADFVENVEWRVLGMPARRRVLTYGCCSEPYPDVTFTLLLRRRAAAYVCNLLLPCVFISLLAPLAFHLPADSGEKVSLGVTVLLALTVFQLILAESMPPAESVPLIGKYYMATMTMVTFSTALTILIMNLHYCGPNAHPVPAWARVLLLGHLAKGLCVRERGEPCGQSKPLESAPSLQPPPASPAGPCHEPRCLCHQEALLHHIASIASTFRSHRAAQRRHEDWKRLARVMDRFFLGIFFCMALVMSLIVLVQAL

T1 sequence (Q9UGM1 26-479 limits assumed): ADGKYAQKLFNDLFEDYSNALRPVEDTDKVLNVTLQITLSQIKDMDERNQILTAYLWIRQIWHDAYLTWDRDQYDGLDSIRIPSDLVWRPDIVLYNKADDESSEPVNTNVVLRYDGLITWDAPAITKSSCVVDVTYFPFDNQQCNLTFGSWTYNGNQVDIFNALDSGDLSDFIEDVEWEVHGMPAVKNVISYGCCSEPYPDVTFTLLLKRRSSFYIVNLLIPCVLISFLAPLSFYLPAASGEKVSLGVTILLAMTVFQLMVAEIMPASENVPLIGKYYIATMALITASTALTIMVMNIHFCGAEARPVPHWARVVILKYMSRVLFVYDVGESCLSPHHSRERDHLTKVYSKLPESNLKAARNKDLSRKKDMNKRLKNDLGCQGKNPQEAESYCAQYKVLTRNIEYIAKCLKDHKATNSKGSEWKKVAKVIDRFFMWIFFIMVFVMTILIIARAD
T1 sequence (Q9GZZ6 25-450): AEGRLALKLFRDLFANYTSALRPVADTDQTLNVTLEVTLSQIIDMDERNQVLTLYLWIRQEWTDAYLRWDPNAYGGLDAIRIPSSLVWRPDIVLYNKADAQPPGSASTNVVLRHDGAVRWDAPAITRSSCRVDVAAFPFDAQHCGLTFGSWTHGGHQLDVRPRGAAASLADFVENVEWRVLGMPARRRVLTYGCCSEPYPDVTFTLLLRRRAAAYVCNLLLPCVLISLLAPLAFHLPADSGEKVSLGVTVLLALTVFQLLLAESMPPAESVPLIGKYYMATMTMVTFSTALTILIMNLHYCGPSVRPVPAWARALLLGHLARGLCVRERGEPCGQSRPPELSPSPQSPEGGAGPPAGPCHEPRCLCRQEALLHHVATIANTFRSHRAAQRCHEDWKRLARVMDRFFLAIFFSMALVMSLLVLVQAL

Row | Compound | IC50 [1] | IC50 [2]
1 | N=C(N)NCCC[C@H](NC(=O)[C@@H]1CSSC[C@@H]2NC(=O)[C@@H](NC(=O)CN)CSSC[C@H](NC(=O)[C@H](CCCNC(=N)N)NC(=O)[C@@H]3CCCN3C(=O)[C@H](CC(=O)O)NC(=O)[C@H](CO)NC2=O)C(=O)N[C@@H](CCCNC(=N)N)C(=O)N[C@@H](Cc2ccc(O)cc2)C(=O)N[C@@H](CCC(N)=O)C(=O)N1)C(=O)O [SEQ ID NO:32] (H-GCCSDPRCRYQCR-OH; disulfide 2-8, 3-12) | 202 nM | –
2 | CC(C)[C@@H]1NC(=O)[C@H](CC(=O)O)NC(=O)[C@H](CO)NC(=O)[C@@H]2CSSC[C@@H](C(=O)N[C@@H](CCCNC(=N)N)C(=O)O)NC(=O)[C@H](CCCNC(=N)N)NC(=O)[C@H](Cc3ccc(O)cc3)NC(=O)[C@H](CCCNC(=N)N)NC(=O)[C@H](CSSC[C@H](NC(=O)CN)C(=O)N2)NC(=O)[C@H](CCCNC(=N)N)NC1=O [SEQ ID NO:23] (H-GCCSDVRCRYRCR-OH; disulfide 2-8, 3-12) | – | 4100 nM
3 | N=C(N)NCCC[C@H](NC(=O)[C@@H]1CSSC[C@@H]2NC(=O)[C@@H](NC(=O)CN)CSSC[C@H](NC(=O)[C@H](CCCNC(=N)N)NC(=O)[C@@H]3CCCN3C(=O)[C@H](CC(=O)O)NC(=O)[C@H](CO)NC2=O)C(=O)N[C@@H](CCCNC(=N)N)C(=O)N[C@@H](Cc2c[nH]c3ccccc23)C(=O)N[C@@H](CCCNC(=N)N)C(=O)N1)C(=O)O [SEQ ID NO:16] (H-GCCSDPRCRWRCR-OH; disulfide 2-8, 3-12) | 268 nM | 11 nM
4 | N=C(N)NCCC[C@@H]1NC(=O)[C@H](Cc2ccc(O)cc2)NC(=O)[C@H](CCCNC(=N)N)NC(=O)[C@@H]2CSSC[C@H](NC(=O)CN)C(=O)N[C@@H](CSSC[C@@H](C(N)=O)NC1=O)C(=O)N[C@@H](CO)C(=O)N[C@@H](CC(=O)O)C(=O)N1CCC[C@H]1C(=O)N[C@@H](CCCNC(=N)N)C(=O)N2 [SEQ ID NO:21] (H-GCCSDPRCRYRC-NH2; disulfide 2-8, 3-12) | – | 7.8 nM
5 | N=C(N)NCCC[C@H](NC(=O)[C@@H]1CSSC[C@@H]2NC(=O)[C@@H](NC(=O)CN)CSSC[C@H](NC(=O)[C@H](CCCNC(=N)N)NC(=O)[C@@H]3CCCN3C(=O)[C@H](CCC(=O)O)NC(=O)[C@H](CO)NC2=O)C(=O)N[C@@H](CCCNC(=N)N)C(=O)N[C@@H](Cc2ccc(O)cc2)C(=O)N[C@@H](CCCNC(=N)N)C(=O)N1)C(=O)O [SEQ ID NO:22] (H-GCCSEPRCRYRCR-OH; disulfide 2-8, 3-12) | – | 6600 nM
6 | C[C@@H]1NC(=O)[C@@H]2CSSC[C@H](NC(=O)CN)C(=O)N[C@@H](CSSC[C@@H](C(=O)N[C@@H](CCCNC(=N)N)C(=O)O)NC(=O)[C@H](CCCNC(=N)N)NC(=O)[C@H](Cc3ccc(O)cc3)NC1=O)C(=O)N[C@@H](CO)C(=O)N[C@@H](CC(=O)O)C(=O)N1CCC[C@H]1C(=O)N[C@@H](CCCNC(=N)N)C(=O)N2 [SEQ ID NO:24] (H-GCCSDPRCAYRCR-OH; disulfide 2-8, 3-12) | – | 13000 nM
7 | N=C(N)NCCC[C@H](NC(=O)[C@@H]1CSSC[C@@H]2NC(=O)[C@@H](NC(=O)CN)CSSC[C@H](NC(=O)[C@H](CCCNC(=N)N)NC(=O)[C@@H]3CCCN3C(=O)[C@H](CC(=O)O)NC(=O)[C@H](Cc3ccc(O)cc3)NC2=O)C(=O)N[C@@H](CCCNC(=N)N)C(=O)N[C@@H](Cc2ccc(O)cc2)C(=O)N[C@@H](CCCNC(=N)N)C(=O)N1)C(=O)O [SEQ ID NO:34] (H-GCCYDPRCRYRCR-OH; disulfide 2-8, 3-12) | > 1000 nM | –
8 | N=C(N)NCCC[C@H](NC(=O)[C@@H]1CSSC[C@@H]2NC(=O)[C@@H](NC(=O)CN)CSSC[C@H](NC(=O)[C@H](CCCNC(=N)N)NC(=O)[C@@H]3CCCN3C(=O)[C@H](CC(=O)O)NC(=O)[C@H](CO)NC2=O)C(=O)N[C@@H](CCCNC(N)=O)C(=O)N[C@@H](Cc2ccc(O)cc2)C(=O)N[C@@H](CCCNC(=N)N)C(=O)N1)C(=O)O [SEQ ID NO:9] | 416 nM | 2.4 nM
9 | N=C(N)NCCC[C@H](NC(=O)[C@@H]1CSSC[C@@H]2NC(=O)[C@@H](NC(=O)CN)CSSC[C@H](NC(=O)[C@H](CCCNC(=N)N)NC(=O)[C@@H]3CCCN3C(=O)[C@H](CC(=O)O)NC(=O)[C@H](CO)NC2=O)C(=O)N[C@@H](CCCNC(=N)N)C(=O)N[C@@H](Cc2ccccc2)C(=O)N[C@@H](CCCNC(=N)N)C(=O)N1)C(=O)O [SEQ ID NO:17] (H-GCCSDPRCRFRCR-OH; disulfide 2-8, 3-12) | > 1000 nM | 8 nM
10 | N=C(N)NCCC[C@H](NC(=O)[C@@H]1CSSC[C@@H]2NC(=O)[C@@H](NC(=O)CN)CSSC[C@H](NC(=O)[C@H](CCCNC(=N)N)NC(=O)[C@@H]3CCCN3C(=O)[C@H](CC(=O)O)NC(=O)[C@H](CO)NC2=O)C(=O)N[C@@H](CCCCN)C(=O)N[C@@H](Cc2ccc(O)cc2)C(=O)N[C@@H](CCCNC(=N)N)C(=O)N1)C(=O)O [SEQ ID NO:14] | – | > 1000 nM
11 | C[C@@H](O)[C@@H]1NC(=O)[C@@H]2CSSC[C@@H](C(=O)N[C@@H](CCCNC(=N)N)C(=O)O)NC(=O)[C@H](CCCNC(=N)N)NC(=O)[C@H](Cc3ccc(O)cc3)NC(=O)[C@H](CCCNC(=N)N)NC(=O)[C@H](CSSC[C@H](NC(=O)CN)C(=O)N2)NC(=O)[C@H](CCCNC(=N)N)NC(=O)[C@@H]2CCCN2C(=O)[C@H](CC(=O)O)NC1=O [SEQ ID NO:3] | 281 nM | –
12 | N=C(N)NCCC[C@H](NC(=O)[C@@H]1CSSC[C@@H]2NC(=O)[C@@H](NC(=O)CN)CSSC[C@H](NC(=O)[C@H](CCCNC(=N)N)NC(=O)[C@@H]3CCCN3C(=O)[C@H](CC(=O)O)NC(=O)[C@H](CO)NC2=O)C(=O)N[C@@H](CCCNC(=N)N)C(=O)N[C@@H](Cc2ccc(O)cc2)C(=O)N[C@@H](Cc2c[nH]cn2)C(=O)N1)C(=O)O [SEQ ID NO:36] (H-GCCSDPRCRYHCR-OH; disulfide 2-8, 3-12) | > 1000 nM | –
13 | C[C@@H]1NC(=O)[C@@H]2CSSC[C@@H](C(=O)N[C@@H](CCCNC(=N)N)C(=O)O)NC(=O)[C@H](CCCNC(=N)N)NC(=O)[C@H](Cc3ccc(O)cc3)NC(=O)[C@H](CCCNC(=N)N)NC(=O)[C@H](CSSC[C@H](NC(=O)CN)C(=O)N2)NC(=O)[C@H](CCCNC(=N)N)NC(=O)[C@@H]2CCCN2C(=O)[C@H](CC(=O)O)NC1=O [SEQ ID NO:20] (H-GCCADPRCRYRCR-OH; disulfide 2-8, 3-12) | > 1000 nM | 14.5 nM
14 | C[C@@H]1NC(=O)[C@@H]2CCCN2C(=O)[C@H](Cc2c[nH]cn2)NC(=O)[C@H](CO)NC(=O)[C@@H]2CSSC[C@@H](C(=O)N[C@@H](CCCNC(=N)N)C(=O)O)NC(=O)[C@H](CCCNC(=N)N)NC(=O)[C@H](Cc3ccc(O)cc3)NC(=O)[C@H](CCCNC(=N)N)NC(=O)[C@H](CSSC[C@H](NC(=O)CN)C(=O)N2)NC1=O [SEQ ID NO:25] (H-GCCSHPACRYRCR-OH; disulfide 2-8, 3-12) | – | > 10000 nM
15 | N=C(N)NCCCC[C@@H]1NC(=O)[C@@H]2CSSC[C@H](NC(=O)CN)C(=O)N[C@@H](CSSC[C@@H](C(=O)N[C@@H](CCCNC(=N)N)C(=O)O)NC(=O)[C@H](CCCNC(=N)N)NC(=O)[C@H](Cc3ccc(O)cc3)NC1=O)C(=O)N[C@@H](CO)C(=O)N[C@@H](CC(=O)O)C(=O)N1CCC[C@H]1C(=O)N[C@@H](CCCNC(=N)N)C(=O)N2 [SEQ ID NO:11] | > 1000 nM | > 1000 nM
